As usually defined, the Ki is the dissociation constant of the complex between target and ligand, obtained from inhibition or displacement. One may read the IC50 as the concentration that gives 50% inhibition. A lower IC50 goes with greater potency in that assay.

This is an account of results in ChEMBL document CHEMBL1139531, “Synthesis and biological evaluation of dihydromotuporamine derivatives in cells containing active polyamine transporters” (J Med Chem, 2005).

The subject of test [1] is L1210. Description: Affinity for cellular polyamine transporter system as inhibition [14C]spermidine uptake in L1210 cells. It is filed as functional, cell-based, Mus musculus.
For test [2], the system named is CHO-MG. Description: Relative inhibition of CHO-MG and chinese hamster ovary cell proliferation. It is filed as functional.
The subject of test [3] is L1210. Description: Inhibition of murine L1210 leukemia cell proliferation, high polyamine transporter activity. It is filed as functional, cell-based. The following applies: Mus musculus.
Test [4] deals with CHO. Description: Inhibition of chinese hamster ovary cell proliferation, high polyamine transporter activity. The following applies: Cricetulus griseus. It is filed as functional, cell-based.
Test [5] relates to CHO-MG. Description: Inhibition of MGBG-resistant CHO-MG cell proliferation, no polyamine transporter activity. It is filed as functional, cell-based. The following applies: Cricetulus griseus.

Regarding `NCCCCNCCCCN1CCCCCCCCCCCCCC1`, the Ki in test [1] was found to be 6.2 µM. Moreover, the Ratio in test [2] came to 1. In addition, the IC50 in test [3] was 18.5 µM; in test [4] it was 30 µM; in test [5], 28.2 µM.

`NCCCNCCCN1CCCCCCCCCCCCCC1` displayed a Ki in test [1] of 9.9 µM. The Ratio in test [2] came to 1. Also, the IC50 was 3 µM in test [3], 10.5 µM in test [4] and 10 µM in test [5].

In test [1], `CCN(CCCCNCCCCN)Cc1c2ccccc2cc2ccccc12.Cl.Cl.Cl` yielded a Ki of 24.4 µM. In addition, the Ratio in test [2] is reported as 1. Further, the values for the IC50 in test [3], in test [4] and in test [5] were 22.2 µM, 22.2 µM and 21.9 µM, respectively.

As for `Cl.Cl.Cl.NCCCNCCCNCc1c2ccccc2cc2ccccc12`, in test [1], the Ki is 33.4 µM. Moreover, the Ratio in test [2] turned out to be 1.8. Also, the results for the IC50 in test [3], in test [4] and in test [5] were 1.8 µM, 1.9 µM and 3.4 µM, respectively.

In the case of `Cl.Cl.Cl.NCCCCNCCCCNCc1c2ccccc2cc2ccccc12`, the Ratio in test [2] came out at 148. Further, in test [4], the IC50 stood at 0.45 µM.
